Measured values: US20080293696A1, “2-Aminoarylcarboxamides Useful as Cancer Chemotherapeutic Agents” (Bayer Pharmaceuticals Corporation, priority 2004, published 2008)
Counter-ions that a name gives are not always drawn.

What follows are molecules tested on PAKT/PKB (p-(S473) AKT) in H209 small cell lung carcinoma cells stimulated with Stem Cell Factor (assay: PAKT/PKB Cytoblot Assay with H209 cells (SCF-stimulated p-(S473) AKT)). Settings: Homo sapiens, NCI-H209, compound 1 hour, SCF 25 ng/mL 5 minutes, group: between 500 nM and 1 μM (units in value).
Format: cell-based
Procedure, shortened: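 H209 SCLC cells kept overnight in RPMI with 0.1% BSA were pretreated 1 h at 37 °C with compound (0.01–10 μM final), then stimulated with SCF 25 ng/mL for 5 min. After formaldehyde/methanol fixation, p-(S473) AKT was detected in-cell with HRP secondary and ECL chemiluminescence, and IC50 was derived.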
O=C(NCCc1ccc(O)cc1)c1cc(CNc2ccccc2C(=O)Nc2ccc3c(c2)OC(F)(F)O3)ccn1 [Example 129, 4-{[(2-{[(2,2-difluoro-1,3-benzodioxol-5-yl)amino]carbonyl}phenyl)amino]methyl}-N-[2-(4-hydroxyphenyl)ethyl]pyridine-2-carboxamide] showed an IC50 of 500 to 1000 nM.
N#Cc1cc(CNc2cc(F)ccc2C(=O)Nc2ccc3c(c2)OC(F)(F)C(F)(F)O3)ccn1 [Example 28, 2-{[(2-cyanopyridin-4-yl)methyl]amino}-4-fluoro-N-(2,2,3,3-tetrafluoro-2,3-dihydro-1,4-benzodioxin-6-yl)benzamide] gave an IC50 of 500 to 1000 nM.
For CN(C)C(=O)c1cc(CNc2ccccc2C(=O)Nc2ccc3c(c2)OC(F)(F)O3)ccn1 [Example 80, 4-{[(2-{[(2,2-Difluoro-1,3-benzodioxol-5-yl)amino]carbonyl}phenyl)amino]methyl}-N,N-dimethylpyridine-2-carboxamide], the IC50 was 500 to 1000 nM.
In the case of CCN1CCCC1CNC(=O)c1cc(CNc2ccccc2C(=O)Nc2ccc3c(c2)OC(F)(F)O3)ccn1 (centres unmarked) [Example 84, 4-{[(2-{[(2,2-difluoro-1,3-benzodioxol-5-yl)amino]carbonyl}phenyl)amino]methyl}-N-[(1-ethylpyrrolidin-2-yl)methyl]pyridine-2-carboxamide], the IC50 is reported as 500 to 1000 nM.
CCNC(=O)c1cc(CNc2cc(F)c(F)cc2C(=O)Nc2ccc3c(c2)OC(F)(F)C(F)(F)O3)ccn1 [Example 43, 4-{[(4,5-difluoro-2-{[(2,2,3,3-tetrafluoro-2,3-dihydro-1,4-benzodioxin-6-yl)amino]carbonyl}phenyl)amino]methyl}-N-ethylpyridine-2-carboxamide] showed an IC50 of 500 to 1000 nM.

Same assay, conditions: Homo sapiens, NCI-H209, compound 1 hour, SCF 25 ng/mL 5 minutes, group: between 1 and 3 μM
N#Cc1cc(CNc2ccc(F)cc2C(=O)Nc2ccc3c(c2)OC(F)(F)C(F)(F)O3)ccn1 [Example 27, 2-{[(2-cyanopyridin-4-yl)methyl]amino}-5-fluoro-N-(2,2,3,3-tetrafluoro-2,3-dihydro-1,4-benzodioxin-6-yl)benzamide] showed an IC50 of 1000 to 3000 nM.
For Cc1cc(CNc2ccccc2C(=O)Nc2ccc3c(c2)OC(F)(F)C(F)(F)O3)nc(Cl)n1 [Example 26, 2-{[(2-chloro-6-methylpyrimidin-4-yl)methyl]amino}-N-(2,2,3,3-tetrafluoro-2,3-dihydro-1,4-benzodioxin-6-yl)benzamide], the IC50 was 1000 to 3000 nM.
O=C(Nc1ccc2c(c1)OC(F)(F)O2)c1cc(F)ccc1NCc1ccnc(C2=NCCN2)c1 [Example 41, N-(2,2-difluoro-1,3-benzodioxol-5-yl)-2-({[2-(4,5-dihydro-1H-imidazol-2-yl)pyridin-4-yl]methyl}amino)-5-fluorobenzamide] showed an IC50 of 1000 to 3000 nM.
CC(CN(C)C)NC(=O)c1cc(CNc2ccccc2C(=O)Nc2ccc3c(c2)OC(F)(F)O3)ccn1 (centres unmarked) [Example 116, 4-{[(2-{[(2,2-difluoro-1,3-benzodioxol-5-yl)amino]carbonyl}phenyl)amino]methyl}-N-[2-(dimethylamino)-1-methylethyl]pyridine-2-carboxamide] showed an IC50 of 1000 to 3000 nM.
Molecule O=C(O)CCNC(=O)c1cc(CNc2ccccc2C(=O)Nc2ccc3c(c2)OC(F)(F)O3)ccn1 [Example 99, N-[(4-{[(2-{[(2,2-difluoro-1,3-benzodioxol-5-yl)amino]carbonyl}phenyl)amino]methyl}pyridin-2-yl)carbonyl]beta-alanine] has an IC50 of 1000 to 3000 nM.

Same assay, conditions: Homo sapiens, NCI-H209, compound 1 hour, SCF 25 ng/mL 5 minutes, group: less than 500 nM
For O=C(NCCCn1ccnc1)c1cc(CNc2ccccc2C(=O)Nc2ccc3c(c2)OC(F)(F)O3)ccn1 [Example 96, 4-{[(2-{[(2,2-difluoro-1,3-benzodioxol-5-yl)amino]carbonyl}phenyl)amino]methyl}-N-[3-(1H-imidazol-1-yl)propyl]pyridine-2-carboxamide], the IC50 was under 500 nM.
O=C(Nc1ccc2c(c1)C(F)(F)OC(F)(F)O2)c1ccccc1NCc1ccncc1 [Example 2, 2-[(pyridin-4-ylmethyl)amino]-N-(2,2,4,4-tetrafluoro-4H-1,3-benzodioxin-6-yl)benzamide] showed an IC50 of under 500 nM.
Molecule CC1CCCCN1CCCNC(=O)c1cc(CNc2ccccc2C(=O)Nc2ccc3c(c2)OC(F)(F)O3)ccn1 (centres unmarked) [Example 119, 4-{[(2-{[(2,2-difluoro-1,3-benzodioxol-5-yl)amino]carbonyl}phenyl)amino]methyl}-N-[3-(2-methylpiperidin-1-yl)propyl]pyridine-2-carboxamide] has an IC50 of under 500 nM.
Work on CNC(=O)c1cc(CNc2ccc(F)cc2C(=O)Nc2ccc3c(c2)OC(F)(F)O3)ccn1 [Example 31, 4-{[(2-{[(2,2-difluoro-1,3-benzodioxol-5-yl)amino]carbonyl}-4-fluorophenyl)amino]methyl}-N-methylpyridine-2-carboxamide] yielded an IC50 of under 500 nM.
COC(C)(C)C(=O)Nc1cc(CNc2ccccc2C(=O)Nc2ccc3c(c2)OC(F)(F)O3)ccn1 [Example 159, N-(2,2-difluoro-1,3-benzodioxol-5-yl)-2-[({2-[(2-methoxy-2-methylpropanoyl)amino]pyridin-4-yl}methyl)amino]benzamide] gave an IC50 of under 500 nM.
CNC(=O)c1cc(CNc2ccccc2C(=O)Nc2ccc3c(c2)OC(F)(F)O3)ccn1 [Example 24, 4-{[(2-{[(2,2-difluoro-1,3-benzodioxol-5-yl)amino]carbonyl}phenyl)amino]methyl}-N-methylpyridine-2-carboxamide] showed an IC50 of under 500 nM.
With CCOC(=O)c1cc(CNc2ccccc2C(=O)Nc2ccc3c(c2)OC(F)(F)O3)ccn1 [Example 82, Ethyl 4-{[(2-{[(2,2-difluoro-1,3-benzodioxol-5-yl)amino]carbonyl}phenyl)amino]methyl}pyridine-2-carboxylate] the IC50 was under 500 nM.
CNC(=O)c1cc(CNc2cc(F)ccc2C(=O)Nc2ccc3c(c2)OC(F)(F)O3)ccn1 [Example 33, 4-{[(2-{[(2,2-difluoro-1,3-benzodioxol-5-yl)amino]carbonyl}-5-fluorophenyl)amino]methyl}-N-methylpyridine-2-carboxamide] showed an IC50 of under 500 nM.
O=C(Nc1ccc2c(c1)OC(F)(F)O2)c1cccnc1NCc1ccncc1 [Example 15, N-(2,2-difluoro-1,3-benzodioxol-5-yl)-2-[(pyridin-4-ylmethyl)amino]nicotinamide] was tested, and the IC50 was under 500 nM.
Work on CCCOCCCNC(=O)c1cc(CNc2ccccc2C(=O)Nc2ccc3c(c2)OC(F)(F)O3)ccn1 [Example 124, 4-{[(2-{[(2,2-difluoro-1,3-benzodioxol-5-yl)amino]carbonyl}phenyl)amino]methyl}-N-(3-propoxypropyl)pyridine-2-carboxamide] yielded an IC50 of under 500 nM.
O=C(NCCCN1CCCC1)c1cc(CNc2ccccc2C(=O)Nc2ccc3c(c2)OC(F)(F)O3)ccn1 [Example 92, 4-{[(2-{[(2,2-difluoro-1,3-benzodioxol-5-yl)amino]carbonyl}phenyl)amino]methyl}-N-(3-pyrrolidin-1-ylpropyl)pyridine-2-carboxamide] gave an IC50 of under 500 nM.
Molecule N#Cc1cc(CNc2ccccc2C(=O)Nc2ccc3c(c2)OC(F)(F)O3)ccn1 [Example 25, 2-{[(2-cyanopyridin-4-yl)methyl]amino}-N-(2,2-difluoro-1,3-benzodioxol-5-yl)benzamide] has an IC50 of under 500 nM.
For O=C(Nc1ccc2c(c1)OC(F)(F)O2)c1cc(F)ccc1NCc1ccncc1 [Example 20, N-(2,2-difluoro-1,3-benzodioxol-5-yl)-5-fluoro-2-[(pyridin-4-ylmethyl)amino]benzamide], the IC50 was under 500 nM.
In the case of NC(=O)CCNC(=O)c1cc(CNc2ccccc2C(=O)Nc2ccc3c(c2)OC(F)(F)O3)ccn1 [Example 95, N-(3-amino-3-oxopropyl)-4-{[(2{[(2,2-difluoro-1,3-benzodioxol-5-yl)amino]carbonyl}phenyl)amino]methyl}pyridine-2-carboxamide], the IC50 is reported as under 500 nM.
Molecule COC(=O)COCC(=O)Nc1cc(CNc2ccccc2C(=O)Nc2ccc3c(c2)OC(F)(F)O3)ccn1 [Example 157] has an IC50 of under 500 nM.
In the case of O=C(NCCCN1CCCCCC1)c1cc(CNc2ccccc2C(=O)Nc2ccc3c(c2)OC(F)(F)O3)ccn1 [Example 113, N-(3-azepan-1-ylpropyl)-4-{[(2-{[(2,2-difluoro-1,3-benzodioxol-5-yl)amino]carbonyl}phenyl)amino]methyl}pyridine-2-carboxamide], the IC50 is reported as under 500 nM.
In the case of O=C(NC1CC1)c1cc(CNc2ccccc2C(=O)Nc2ccc3c(c2)OC(F)(F)O3)ccn1 [Example 74, N-cyclopropyl-4-{[(2-{[(2,2-difluoro-1,3-benzodioxol-5-yl)amino]carbonyl}phenyl)amino]methyl}pyridine-2-carboxamide], the IC50 is reported as under 500 nM.
With O=C(Nc1ccc2c(c1)OC(F)(F)C(F)(F)O2)c1cccnc1NCc1ccncc1 [Example 12, 2-[(pyridin-4-ylmethyl)amino]-N-(2,2,3,3-tetrafluoro-2,3-dihydro-1,4-benzodioxin-6-yl)nicotinamide] the IC50 was under 500 nM.
CCCOCCNC(=O)c1cc(CNc2ccccc2C(=O)Nc2ccc3c(c2)OC(F)(F)O3)ccn1 [Example 114, 4-{[(2-{[(2,2-difluoro-1,3-benzodioxol-5-yl)amino]carbonyl}phenyl)amino]methyl}-N-(2-propoxyethyl)pyridine-2-carboxamide] was tested, and the IC50 was under 500 nM.
O=C(Nc1ccc2c(c1)OC(F)(F)O2)c1ccccc1NCc1ccnc(NCC2CCCO2)c1 (centres unmarked) [Example 148, N-(2,2-difluoro-1,3-benzodioxol-5-yl)-2-[({2-[(tetrahydrofuran-2-ylmethyl)amino]pyridin-4-yl}methyl)amino]benzamide trifluoroacetate] was tested, and the IC50 was under 500 nM.
CNC(=O)Nc1cc(CNc2ccccc2C(=O)Nc2ccc3c(c2)OC(F)(F)O3)ccn1 [Example 165, N-(2,2-difluoro-1,3-benzodioxol-5-yl)-2-{[(2-{[(methylamino)carbonyl]amino}pyridin-4-yl)methyl]amino}benzamide] gave an IC50 of under 500 nM.
O=C(NCCCCN1CCCC1)c1cc(CNc2ccccc2C(=O)Nc2ccc3c(c2)OC(F)(F)O3)ccn1 [Example 97, 4-{[(2-{[(2,2-difluoro-1,3-benzodioxol-5-yl)amino]carbonyl}phenyl)amino]methyl}-N-(4-pyrrolidin-1-ylbutyl)pyridine-2-carboxamide] was tested, and the IC50 was under 500 nM.
